Assay results taken from patent US7803801B2, “Aminopyridine compounds having Syk inhibitory activity” (Japan Tobacco, Inc., priority 2005, dated 2010).
Structures can show the parent of a compound that is named as a salt. Where two headings read alike, the source gives them in different places.

Key:
[1] = molecular target: GST-Syk Full Protein (human) (Homo sapiens, UniProt P43405); assay: Syk kinase inhibition test (HTRF method); format: biochemical
In short: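 HTRF read-out: after EDTA termination and 1 h with XL665-streptavidin and Eu-anti-phosphotyrosine, the 665/620 nm ratio was measured. The reaction ran 30 min at 20–25 °C with final 6.4 nM human GST-Syk, 250 nM biotinylated peptide, 100 μM ATP, pH 7.0 HEPES buffer, 2% DMSO.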

[2] = tested on: cultured human mast cells; assay: Degranulation inhibition test using cultured human mast cells (IgE cross-linking, β-Hexosaminidase release); format: cell-based; details: Mast cell, cultured human mast cells, read-out: human degranulation ave. IC50
In short: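 Degranulation was triggered by anti-hIgE (10 μg/mL final, 30 min, 37 °C) after a 10-min compound pretreatment (DMSO 0.1%) of cord-blood CD34+-derived mast cells primed 5 days with IL-4 and IgE. β-Hexosaminidase in supernatant was measured with p-nitrophenyl-GlcNAc substrate (A405), expressed against water-lysed total; IC50 (M).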

[3] = HTRF, 100 μM ATP, 30 min room temperature, average, read-out: sykHTRF ave IC50
[4] = anti-hIgE stimulation, β-Hexosaminidase index, average
[5] = Tables 2-x, thiophene compounds B, read-out: sykHTRK ave IC50
[6] = Tables 2-x, thiophene compounds B
[7] = Tables 1-x, compounds A, read-out: sykHTRF ave IC50

| Structure (SMILES) | IC50 [1, 3] [nM] | IC50 [2, 4] [nM] | other results |
| --- | --- | --- | --- |
| Cc1ccnc(Nc2cccc(-c3cnc([C@H]4CC[C@H](CN)CC4)s3)n2)c1 [Compound A-219, trans-4-{5-[6-(4-methylpyridin-2-ylamino)pyridin-2-yl]thiazol-2-yl}cyclohexylmethylamine] | < 100 | > 1000 |  |
| Cc1ccnc(Nc2cccc(-c3cnc(C4=NCCC4)s3)n2)c1 [Compound A-110] | 100 to 1000 | 100 to 1000 |  |
| Cc1ccnc(Nc2cccc(-c3cnc(C4CCNCC4)s3)n2)c1 [Compound A-92, (4-methylpyridin-2-yl)-[6-(2-piperidin-4-ylthiazol-5-yl)pyridin-2-yl]amine] | < 100 | 100 to 1000 |  |
| Cc1ccnc(Nc2cccc(-c3cnc(C(=O)NCC(C)(C)CO)s3)n2)c1 [Compound A-62] | 100 to 1000 | > 1000 |  |
| Cc1ccnc(Nc2cccc(-c3cnc(C(C)(C)NC(=O)OC(C)(C)C)s3)n2)c1 [Compound A-112] | > 1000 | > 1000 |  |
| COC(=O)[C@H]1CC[C@H](c2ncc(-c3cccc(Nc4cc(C)ccn4)n3)s2)CC1 [Compound A-6, trans-4-{5-[6-(4-methylpyridin-2-ylamino)pyridin-2-yl]thiazol-2-yl}cyclohexanecarboxylic acid methyl ester] | 100 to 1000 | 100 to 1000 |  |
| CC(=O)c1ccc(-c2cccc(Nc3cc(Cl)ccn3)n2)s1 [Compound B-74, 1-{5-[6-(4-chloropyridin-2-ylamino)pyridin-2-yl]thiophen-2-yl}ethanone] |  |  | IC50 [1, 5]: < 100 nM; IC50 [2, 6]: 100 to 1000 nM |
| Cc1ccnc(Nc2cccc(-c3ccc(-c4nnn[nH]4)s3)n2)c1 [Compound B-95] |  |  | IC50 [1, 5]: 100 to 1000 nM; IC50 [2, 6]: > 1000 nM |
| CC(=O)N[C@H]1CN(Cc2ncc(-c3cccc(Nc4cc(C)ccn4)n3)s2)C[C@@H]1O [Compound A-414] |  |  | IC50 [1, 7]: 100 to 1000 nM; IC50 ([2]; Tables 1-x, compounds A): 100 to 1000 nM |
| Cc1ccnc(Nc2cccc(-c3cnc(CCC4CCN(C(=O)C5CCC(=O)CC5)CC4)s3)n2)c1 [Compound A-293] | 100 to 1000 | > 1000 |  |
| O=C(O)[C@@H]1CCCN(c2ncc(-c3cccc(Nc4cc(Cl)ccn4)n3)s2)C1 [Compound A-546, (R)-1-{5-[6-(4-chloropyridin-2-ylamino)pyridin-2-yl]thiazol-2-yl}piperidine-3-carboxylic acid] |  |  | IC50 [1, 7]: < 100 nM; IC50 ([2]; Tables 1-x, compounds A): 100 to 1000 nM |
| COC(=O)c1ccnc(Nc2cccc(-c3ccc(C(C)=O)s3)n2)c1 [Compound B-53, 2-[6-(5-acetylthiophen-2-yl)pyridin-2-ylamino]isonicotinic acid methyl ester] |  |  | IC50 [1, 5]: < 100 nM; IC50 [2, 6]: > 1000 nM |
| Cc1ccnc(Nc2cccc(-c3cnc([C@H](COCc4ccccc4)NC(=O)OC(C)(C)C)s3)n2)c1 [Compound A-43] | > 1000 | > 1000 |  |
| COc1ccnc(Nc2cccc(-c3cnc([C@H]4CC[C@H](C(=O)O)CC4)s3)n2)c1 [Compound A-188, trans-4-{5-[6-(4-methoxypyridin-2-ylamino)pyridin-2-yl]thiazol-2-yl}cyclohexanecarboxylic acid] | < 100 | 100 to 1000 |  |
| Cc1ccnc(Nc2cccc(-c3cnc([C@H]4CC[C@H](C(=O)N5CC[C@H](O)[C@@H](O)C5)CC4)s3)n2)c1 [Compound A-225] | 100 to 1000 | 100 to 1000 |  |
| CNC(=O)C1CCN(c2ncc(-c3cccc(Nc4cc(C)ccn4)n3)s2)CC1 [Compound A-4, N-methyl-1-{5-[6-(4-methylpyridin-2-ylamino)pyridin-2-yl]thiazol-2-yl}piperidine-4-carboxamide] | < 100 | > 1000 |  |
| CC(=O)N[C@@H](CCC(=O)O)c1ncc(-c2cccc(Nc3cc(C)ccn3)n2)s1 [Compound A-103] | 100 to 1000 | > 1000 |  |
| Cc1ccnc(Nc2cccc(-c3cnc(N(CC(N)=O)C[C@H]4CC[C@H](C(=O)O)CC4)s3)n2)c1 [Compound A-599, trans-4-[(N-carbamoylmethyl-N-{5-[6-(4-methylpyridin-2-ylamino)pyridin-2-yl]thiazol-2-yl}amino)methyl]cyclohexanecarboxylic acid] |  |  | IC50 [1, 7]: < 100 nM; IC50 ([2]; Tables 1-x, compounds A): > 1000 nM |

| Structure (SMILES) | IC50 [1, 3] [nM] | IC50 [2, 4] [nM] | other results |
| --- | --- | --- | --- |
| CC(=O)N1CC[C@@H](N(C)c2ncc(-c3cccc(Nc4cc(C)ccn4)n3)s2)C1 [Compound A-563, 1-[(R)-3-(N-methyl-N-{5-[6-(4-methylpyridin-2-ylamino)pyridin-2-yl]thiazol-2-yl}amino)pyrrolidin-1-yl]ethanone] |  |  | IC50 [1, 7]: < 100 nM; IC50 ([2]; Tables 1-x, compounds A): 100 to 1000 nM |
| COc1cc(Nc2cccc(-c3sc(NC(C)=O)nc3C)n2)ncn1 [Compound A-22] | 100 to 1000 | > 1000 |  |
| Cc1ccnc(Nc2cccc(-c3cnc(C4CCN(C(N)=O)CC4)s3)n2)c1 [Compound A-182, 4-{5-[6-(4-methylpyridin-2-ylamino)pyridin-2-yl]thiazol-2-yl}piperidine-1-carboxamide] | < 100 | 100 to 1000 |  |
| Cc1ccnc(Nc2cccc(-c3cnc(C4CCC(CC(=O)O)CC4)s3)n2)c1 (stereo not drawn) [Compound A-595, (4-{5-[6-(4-methylpyridin-2-ylamino)pyridin-2-yl]thiazol-2-yl}cyclohexyl)acetic acid hydrochloride] |  |  | IC50 [1, 7]: < 100 nM; IC50 ([2]; Tables 1-x, compounds A): 100 to 1000 nM |
| CC(=O)O[C@@H](C)c1ncc(-c2cccc(Nc3cc(C)ccn3)n2)s1 [Compound A-25, acetic acid(S)-1-{5-[6-(4-methylpyridin-2-ylamino)pyridin-2-yl]thiazol-2-yl}ethyl ester] | < 100 | 100 to 1000 |  |
| CC(=O)c1ccc(-c2cccc(Nc3cc(CO)ccn3)n2)s1 [Compound B-96] |  |  | IC50 [1, 5]: 100 to 1000 nM; IC50 [2, 6]: > 1000 nM |
| Cc1ccnc(Nc2cccc(-c3cnc(Cc4cccnc4)s3)n2)c1 [Compound A-248, N-(4-methylpyridin-2-yl)-N-[6-(2-pyridin-3-ylmethylthiazol-5-yl)pyridin-2-yl]amine] | < 100 | 100 to 1000 |  |
| CC(=O)N(C)[C@@H](C)c1ncc(-c2cccc(Nc3cc(C)ccn3)n2)s1 [Compound A-52, N-methyl-((S)-1-{5-[6-(4-methylpyridin-2-ylamino)pyridin-2-yl]thiazol-2-yl}ethyl)acetamide] | < 100 | 100 to 1000 |  |
| Cc1ccnc(Nc2cccc(-c3cnc(N(C)CC(=O)NCC(=O)O)s3)n2)c1 [Compound A-571, [2-(N-methyl-N-{5-[6-(4-methylpyridin-2-ylamino)pyridin-2-yl]thiazol-2-yl}amino)acetylamino]acetic acid dihydrochloride] |  |  | IC50 [1, 7]: < 100 nM; IC50 ([2]; Tables 1-x, compounds A): > 1000 nM |
| Cc1ccnc(Nc2cccc(-c3ccc(-c4noc(=O)[nH]4)s3)n2)c1 [Compound B-61] |  |  | IC50 [1, 5]: 100 to 1000 nM; IC50 [2, 6]: > 1000 nM |
| Cc1ccnc(Nc2cccc(-c3cnc(C(=O)NC(C)CO)s3)n2)c1 (stereo not drawn) [Compound A-54] | 100 to 1000 | > 1000 |  |
| Cc1ccnc(Nc2cccc(-c3cnc([C@H]4CC[C@H](C(=O)N[C@@H](CO)Cc5cnc[nH]5)CC4)s3)n2)c1 [Compound A-303, N—[(R)-2-hydroxy-1-(3H-imidazol-4-ylmethyl)ethyl]-trans-4-{5-[6-(4-methylpyridin-2-ylamino)pyridin-2-yl]thiazol-2-yl}cyclohexanecarboxamide] | < 100 | > 1000 |  |
| Cc1ccnc(Nc2cccc(-c3cc(C)c(C(C)O)s3)n2)c1 (stereo not drawn) [Compound B-70] |  |  | IC50 [1, 5]: 100 to 1000 nM; IC50 [2, 6]: 100 to 1000 nM |
| Cc1ccnc(Nc2cccc(-c3cnc(CNC4CCN(C(=O)OC(C)(C)C)CC4)s3)n2)c1 [Compound A-386] |  |  | IC50 [1, 7]: 100 to 1000 nM; IC50 ([2]; Tables 1-x, compounds A): 100 to 1000 nM |
| C/C(=N\O)c1ccc(-c2cccc(Nc3cc(Cl)ccn3)n2)s1 [Compound B-75, 1-{5-[6-(4-chloropyridin-2-ylamino)pyridin-2-yl]thiophen-2-yl}ethanone oxime] |  |  | IC50 [1, 5]: < 100 nM; IC50 [2, 6]: 100 to 1000 nM |
| Cc1ccnc(Nc2cccc(-c3ccc(C(=O)NC(C)(C)CC(=O)O)s3)n2)c1 [Compound B-101] |  |  | IC50 [1, 5]: 100 to 1000 nM; IC50 [2, 6]: > 1000 nM |
| COC(=O)c1ccc(-c2cccc(Nc3cc(C)ccn3)n2)s1 [Compound B-19] |  |  | IC50 [1, 5]: 100 to 1000 nM; IC50 [2, 6]: > 1000 nM |
| COCCO/N=C(\C)c1ccc(-c2cccc(Nc3cc(C)ccn3)n2)s1 [Compound B-46] |  |  | IC50 [1, 5]: 100 to 1000 nM; IC50 [2, 6]: > 1000 nM |

Now from value to compound, other results behind:

| IC50 [1, 3] [nM] | IC50 [2, 4] [nM] | Structure (SMILES) | other results |
| --- | --- | --- | --- |
| 100 to 1000 | 100 to 1000 | CC(=O)N1CCC(Cc2ncc(-c3cccc(Nc4cc(C)ccn4)n3)s2)CC1 [Compound A-328] |  |
| < 100 | 100 to 1000 | Cc1ccnc(Nc2cccc(-c3sc(N4CCOCC4)nc3C)n2)c1 [Compound A-425, N-[6-(4-methyl-2-morpholin-4-ylthiazol-5-yl)pyridin-2-yl]-N-(4-methylpyridin-2-yl)amine] |  |
| 100 to 1000 | 100 to 1000 | COC(=O)NCCc1ncc(-c2cccc(Nc3cc(C)ccn3)n2)s1 [Compound A-308] |  |
| < 100 | 100 to 1000 | CNc1ncc(-c2cccc(Nc3cc(C)ccn3)n2)s1 [Compound A-426, N-methyl-N-{5-[6-(4-methylpyridin-2-ylamino)pyridin-2-yl]thiazol-2-yl}amine] |  |
| 100 to 1000 | 100 to 1000 | Cc1ccnc(Nc2cccc(-c3cnc([C@@H]4CCCC(=O)N4)s3)n2)c1 [Compound A-363] |  |
| < 100 | < 100 | NC(=O)[C@H]1CC[C@H](c2ncc(-c3cccc(Nc4cc(Cl)ccn4)n3)s2)CC1 [Compound A-338, trans-4-{5-[6-(4-chloropyridin-2-ylamino)pyridin-2-yl]thiazol-2-yl}cyclohexanecarboxamide] |  |
